Test systems include IGROV1 ovarian; OVCAR-3 ovarian; OVCAR-4 ovarian; HCC-2998 colon; NCI-H23 lung; M14 melanoma; HCT-15 colon; KM12 colon; K-562 leukemia; RPMI-8226 leukemia.
Holding throughout (assay): NCI-60 cell line screen, 48 h

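Briefly, cells in 96-well plates were exposed to five compound concentrations for 48 h, and endpoints were estimated by linear interpolation. GI50 marks 50% less growth. TGI marks complete inhibition of growth.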

On to `Cc1ccc(O)c(NC(=O)c2cccc(Nc3ccnc(C(F)(F)F)c3)c2)c1`, for which the GI50 is 12.6 µM in the assay on IGROV1 ovarian; 15.5 µM in the assay with OVCAR-3 ovarian; 2.97 µM with OVCAR-4 ovarian; 10.5 µM with HCC-2998 colon; 2.27 µM in the assay with NCI-H23 lung; 7.55 µM with M14 melanoma. The results for the GI50 in the assay with HCT-15 colon and in the assay on KM12 colon were 15.5 µM and 11 µM, respectively. For the same compound, the TGI in the assay with IGROV1 ovarian was found to be 28.1 µM; in the assay with OVCAR-3 ovarian it was 41.6 µM; in the assay with OVCAR-4 ovarian it was 31.2 µM; with HCC-2998 colon, 23.2 µM; in the assay with NCI-H23 lung, 21.2 µM; in the assay on M14 melanoma, 22.3 µM. Besides, the TGI in the assay on HCT-15 colon came out at 42.8 µM; in the assay with KM12 colon, 24.8 µM.
For `CC(C)N(C(=O)C12C3C4C5(C#N)C3C1(C#N)C5C42C#N)C(C)C` (stereo not given), the TGI with IGROV1 ovarian, in the assay with OVCAR-3 ovarian, in the assay on K-562 leukemia, in the assay on RPMI-8226 leukemia, with OVCAR-4 ovarian and in the assay with HCC-2998 colon was above 100 µM each time. In addition, the TGI in the assay with NCI-H23 lung and in the assay on KM12 colon was above 100 µM each time.
On to `O=C(O)c1cc(-c2ccc3cc4c(cc3c2)OCO4)nc2ccccc12`, for which the TGI with IGROV1 ovarian, in the assay with OVCAR-3 ovarian, with K-562 leukemia, in the assay on RPMI-8226 leukemia, with OVCAR-4 ovarian and with NCI-H23 lung was above 100 µM each time. Further, the TGI in the assay on M14 melanoma, with HCT-15 colon and in the assay on KM12 colon was above 100 µM in each case.
On to `O=C1NC(=C(Cl)Cl)/C(=N/S(=O)(=O)N2CCCCC2)N1`, for which the GI50 in the assay on OVCAR-3 ovarian was 2.09 µM; with RPMI-8226 leukemia, 0.553 µM; in the assay with OVCAR-4 ovarian, 1.8 µM; with HCC-2998 colon, 2.28 µM; in the assay on NCI-H23 lung, 2.2 µM; in the assay with M14 melanoma it was 2.06 µM. The GI50 was 1.82 µM with HCT-15 colon and 0.499 µM in the assay on KM12 colon. The TGI in the assay on OVCAR-3 ovarian came out at 3.78 µM; in the assay with RPMI-8226 leukemia, 4.23 µM; in the assay on OVCAR-4 ovarian, 3.47 µM; with HCC-2998 colon, 5.22 µM; in the assay with NCI-H23 lung, 5 µM; in the assay with M14 melanoma, 4.54 µM. Besides, the TGI was 3.91 µM in the assay with HCT-15 colon and 10.3 µM in the assay on KM12 colon.
As to `COc1ccc(C(=O)C(CN(C)C)CN(C)C)cc1`, the GI50 in the assay with IGROV1 ovarian was 15.4 µM; with OVCAR-3 ovarian, 1.29 µM; in the assay on RPMI-8226 leukemia, 2.45 µM; in the assay with HCC-2998 colon, 15.9 µM; with NCI-H23 lung, 14.2 µM; in the assay with M14 melanoma it was 3.53 µM. The GI50 with HCT-15 colon is 2.47 µM; in the assay with KM12 colon it was 11.9 µM. In addition, the TGI with IGROV1 ovarian was determined as 39.2 µM; in the assay on OVCAR-3 ovarian it was 2.57 µM; in the assay with RPMI-8226 leukemia, 6.67 µM; in the assay with HCC-2998 colon, 30 µM; with NCI-H23 lung, 41 µM; with M14 melanoma, 13.5 µM. Moreover, the TGI in the assay with HCT-15 colon is 6.85 µM; in the assay with KM12 colon, 27.3 µM.
Regarding `COc1ccccc1Nc1cc(O)c2c(=O)cc(-c3ccccc3)oc2c1`, the GI50 in the assay with IGROV1 ovarian is 2.98 µM; with OVCAR-3 ovarian, 2.05 µM; in the assay with K-562 leukemia, 0.59 µM; with RPMI-8226 leukemia, 4.51 µM; in the assay on OVCAR-4 ovarian it was 4.49 µM; in the assay on HCC-2998 colon it was 6.07 µM. The results for the GI50 with NCI-H23 lung, with HCT-15 colon and in the assay with KM12 colon were 4.22 µM, 1.65 µM and 2.76 µM, respectively. For the same compound, the TGI in the assay with IGROV1 ovarian was 18.5 µM; with OVCAR-3 ovarian, 5.2 µM; with K-562 leukemia it was above 100 µM; with RPMI-8226 leukemia, above 100 µM; in the assay with OVCAR-4 ovarian it was 47.8 µM; in the assay on HCC-2998 colon it was above 100 µM. Further, the TGI with NCI-H23 lung was 52.6 µM; with HCT-15 colon, above 100 µM; in the assay on KM12 colon, 55.2 µM.
As for `C=C(c1ccc(OC)c(/C=C/C(=O)c2ccc3c(c2)OCO3)c1)c1cc(OC)c(OC)c(OC)c1`, the GI50 in the assay with IGROV1 ovarian is 4.31 µM; in the assay on OVCAR-3 ovarian, 2.98 µM; in the assay with K-562 leukemia it was 0.783 µM; with RPMI-8226 leukemia, 1.56 µM; in the assay on OVCAR-4 ovarian, 3.93 µM; in the assay with NCI-H23 lung, 3.2 µM. For the same compound, the TGI in the assay on IGROV1 ovarian is above 100 µM; with OVCAR-3 ovarian it was 8.21 µM; in the assay on K-562 leukemia, 13.9 µM; in the assay with RPMI-8226 leukemia, 7.39 µM; with OVCAR-4 ovarian, above 100 µM; in the assay with NCI-H23 lung, above 100 µM.
Consider `OCC1C(OCc2ccccc2)C(OCc2ccccc2)C(OCc2ccccc2)CN1Cc1ccccc1` (stereo not given), for which the TGI with IGROV1 ovarian was above 100 µM; in the assay with OVCAR-3 ovarian, above 100 µM; with K-562 leukemia it was above 100 µM; in the assay on OVCAR-4 ovarian, above 100 µM; with HCC-2998 colon it was above 100 µM; in the assay with NCI-H23 lung, 53.3 µM. The TGI in the assay with M14 melanoma, with HCT-15 colon and in the assay with KM12 colon was above 100 µM each time.
On to `COc1cc2cc(OC(C)=O)c3cc4c(cc3c2c(OC)c1OC)OCO4`, for which the TGI in the assay on IGROV1 ovarian, in the assay on OVCAR-3 ovarian, with K-562 leukemia, in the assay on OVCAR-4 ovarian, with HCC-2998 colon and in the assay on NCI-H23 lung was above 100 µM in each case. Also, the TGI in the assay with M14 melanoma, with HCT-15 colon and with KM12 colon was above 100 µM throughout.
Turning to `CCc1cccc(C(C)C)c1NC(=O)C(=O)C1C(=O)Nc2ccccc2S1=O` (stereo not given), the TGI in the assay on IGROV1 ovarian, in the assay on OVCAR-3 ovarian, with RPMI-8226 leukemia, in the assay with OVCAR-4 ovarian, in the assay on HCC-2998 colon and in the assay with NCI-H23 lung was above 100 µM in each case. The TGI in the assay on M14 melanoma, with HCT-15 colon and with KM12 colon was above 100 µM throughout.
`NC(=O)NNC(=O)CCn1[nH]c(=O)c(Cl)c(Cl)c1=O`: the TGI in the assay with IGROV1 ovarian, in the assay with OVCAR-3 ovarian, in the assay with K-562 leukemia, in the assay on OVCAR-4 ovarian, in the assay with HCC-2998 colon and in the assay on NCI-H23 lung was above 100 µM each time. In addition, the TGI with M14 melanoma and with HCT-15 colon was above 100 µM in each case.

The values above are taken from PubChem BioAssay (NCI).
